Like-named read-outs stand apart in the source and are kept apart here. A value given as a limit tells only on which side of the number the result lay.

What all share (type): cell-based
For data set [1], the system named is HIV-1 strain NL4-3. Kind of data set: Anti-HIV-1 luciferase indicator assay in MT2 cells, NL4-3. The note with it: viral strain NL4-3; for IC50: Human immunodeficiency virus 1, NL43, MT2, MT2 cells; for TI / Safety Index (CC50/IC50): MT2 cells. The protocol:
(§1) Compound was dissolved in DMSO to make 30 mM stock. Then the 30 mM stock is further diluted to 4 mM using DMSO. The 4 mM stock was used as the top concentration to carry out an 11-point, 3-fold dilution scheme using DMSO in a 96-well plate to make the compound dose plate. Compounds in the dose plate were transferred to a new 96-well plate (working plate) containing PBS with 0.05% pluronic acid. From this working plate, the compound solution was transferred to the 384-well assay plates.
(§2) Control compounds used in compound control wells were prepared and added to assay plates individually.
(§3) MT2 cells were mixed with HIV-1 strain NL4-3 (or IIIB, or CNHN24) and the cell/virus mixture was added to the aforementioned antivirus assay plates. After incubation in a 37° C., 5% CO2 incubator, the supernatant from the assay plate was transferred to a new 384-well plate containing the indicator cells with a fire fly luciferase gene under HIV-1 LTR control. The expression level of luciferase was related to HIV-1 infectivity and was measured by Bright-Glo kit (Promega).
(§4) Therapeutic index (TI) was determined by taking ratio of CC50/IC50

In data set [2] the test system is HIV-1 strain IIIB. Kind of data set: Anti-HIV-1 luciferase indicator assay in MT2 cells, IIIB. The note with it: viral strain II B; for IC50: Human immunodeficiency virus 1, IIIB, MT2, MT2 cells, read-out: IC50; for TI / Safety Index (CC50/IC50): MT2 cells. The protocol:
as §1, §2, §3, §4

Data set [3] relates to HIV-1 strain CNHN24. In words: Anti-HIV-1 luciferase indicator assay in MT2 cells, CNHN24. The note with it: viral strain CNHN24; for IC50: Human immunodeficiency virus 1, MT2, MT2 cells, read-out: IC50; for TI / Safety Index (CC50/IC50): MT2 cells. The protocol:
as §1, §2, §3, §4

Data set [4] is described as follows: in vitro. The following applies: human, CC50. As to the method: as §1
For cytotoxicity assay the same amount of MT2 cells as in antivirus assay but without HIV-1 virus were added to the cytotoxicity plates. The cytotoxicity was measured by Cell Titer-Glo cell viability assay (Promega).

The test system of data set [5] is HIV-1 strain 92-HT599. In words: Anti HIV-1 p24 assay, strain 92-HT599 in MT2 cells. The note with it: Human immunodeficiency virus 1, MT2 cells, read-out: Percent inhibition; for inhibition at 0.1 µM: HIV-1 92-HT599, p24, concentration 0.1 μM; for inhibition at 1 µM: HIV-1 92-HT599, p24, concentration 1 μM. The protocol:
MT2 cells were infected with the HIV-1 strain 92-HT599 (10TCID50/30000 cells). The infected cells are plated at the concentration of 30000 cells per well in a 96 well assay micro plate. A test compound was added to the micro plate in a defined format with the final concentration of DMSO (vehicle) being not more than 1%. Incubation was carried out in a CO2 incubator for 96 hours for viral infection. At the end of incubation period an aliquot from each well was taken for p24 estimation. The quantitation of p24 is an index for antiviral activity of the compound. Percent inhibition was calculated with reference to control values (vehicle).
P24 estimation was carried out using an Advance Biosciences kit as per the procedure as detailed by supplier.
[…] was made by dissolving test compound in DMSO. Subsequent dilutions were made with DMSO to make necessary working stocks (100×).

In general, IC50 refers to the concentration at which inhibition is half-maximal. As usually defined, the CC50 is the concentration at which the toxic effect on the cells reaches its halfway point. Lower therefore signals harm at low concentration. For `C=C(C)[C@@H]1CC[C@]2(C(=O)N[C@H]3C[C@@H](C(=O)N4CCOCC4)C3(C)C)CC[C@]3(C)[C@H](CC[C@@H]4[C@@]5(C)CC[C@H](O)C(C)(C)[C@@H]5CC[C@]43C)[C@@H]12` [Example 8, (1R,3aS,5aR,5bR,7aR,9S,11aR,11bR,13aR,13bR)-N-((1S,3R)-2,2-dimethyl-3-(morpholine-4-carbonyl)cyclobutyl)-9-hydroxy-5a,5b,8,8,11a-pentamethyl-1-(prop-1-en-2-yl)icosahydro-1H-cyclopenta[a]chrysene-3a-carboxamide], the IC50 in data set [1] (read-out: IC50) was 2200 nM; in data set [2], 3140 nM; in data set [3], 2830 nM. For the same molecule, the “TI / Safety Index (CC50/IC50)” value in data set [1] was found to be 9; in data set [2] it was 6; in data set [3], 7. The molecule further yielded a CC50 in data set [4] of 20000 nM.

With `C=C(C)[C@@H]1CC[C@]2(C(=O)N[C@H]3C[C@@H](C(=O)N4CCOCC4)C3(C)C)CC[C@]3(C)[C@H](CC[C@@H]4[C@@]5(C)CC[C@H](OC(=O)CC(C)(C)C(=O)O)C(C)(C)[C@@H]5CC[C@]43C)[C@@H]12` [Example 9, 4-((1R,3aS,5aR,5bR,7aR,9S,11aR,11bR,13aR,13bR)-3a-((1S,3R)-2,2-dimethyl-3-(morpholine-4-carbonyl)cyclobutylcarbamoyl)-5a,5b,8,8,11a-pentamethyl-1-(prop-1-en-2-yl)icosahydro-1H-cyclopenta[a]chrysen-9-yloxy)-2,2-dimethyl-4-oxobutanoic acid], the IC50 turned out to be 5 nM in data set [1], 7 nM in data set [2] and 8 nM in data set [3]. For the same molecule, the figures for the “TI / Safety Index (CC50/IC50)” value in data set [1], in data set [2] and in data set [3] were 3579, 2658 and 2429, respectively. For the same molecule, the CC50 in data set [4] was above 20000 nM.

In the case of `C=C(C)[C@@H]1CC[C@]2(C(=O)N[C@H]3C[C@@H](C(=O)N4CCCCC4)C3(C)C)CC[C@]3(C)[C@H](CC[C@@H]4[C@@]5(C)CC[C@H](O)C(C)(C)[C@@H]5CC[C@]43C)[C@@H]12` [Example 11, (1R,3aS,5aR,5bR,7aR,9S,11aR,11bR,13aR,13bR)-N-((1S,3R)-2,2-dimethyl-3-(piperidine-1-carbonyl)cyclobutyl)-9-hydroxy-5a,5b,8,8,11a-pentamethyl-1-(prop-1-en-2-yl)icosahydro-1H-cyclopenta[a]chrysene-3a-carboxamide], the values for the IC50 in data set [1] (read-out: IC50), in data set [2] and in data set [3] were 4250 nM, 5670 nM and 5880 nM, respectively. The entries for the “TI / Safety Index (CC50/IC50)” value in data set [1], in data set [2] and in data set [3] were 4.7, 3.5 and 3.4, respectively. Besides, the CC50 in data set [4] was above 20000 nM.

With `C=C(C)[C@@H]1CC[C@]2(C(=O)N[C@H]3C[C@@H](C(=O)N4CCCCC4)C3(C)C)CC[C@]3(C)[C@H](CC[C@@H]4[C@@]5(C)CC[C@H](OC(=O)CC(C)(C)C(=O)O)C(C)(C)[C@@H]5CC[C@]43C)[C@@H]12` [Example 12, 4-((1R,3aS,5aR,5bR,7aR,9S,11aR,11bR,13aR,13bR)-3a-((1S,3R)-2,2-dimethyl-3-(piperidine-1-carbonyl)cyclobutylcarbamoyl)-5a,5b,8,8,11a-pentamethyl-1-(prop-1-en-2-yl)icosahydro-1H-cyclopenta[a]chrysen-9-yloxy)-2,2-dimethyl-4-oxobutanoic acid], the IC50 in data set [1] is 21 nM; in data set [2] it was 29 nM; in data set [3], 17 nM. For the same molecule, the “TI / Safety Index (CC50/IC50)” value in data set [1] is reported as 316; in data set [2], 227; in data set [3], 383. Also, in data set [4], the CC50 is above 20000 nM.

Consider `C=C(C)[C@@H]1CC[C@]2(C(=O)N[C@@H]3CC[C@H](CN4CCC(Cc5ccccc5)CC4)C3)CC[C@]3(C)[C@H](CC[C@@H]4[C@@]5(C)CC[C@H](OC(=O)CCCC(=O)O)C(C)(C)[C@@H]5CC[C@]43C)[C@@H]12` [Example 33, 5-((1R,3aS,5aR,5bR,7aR,9S,11aR,11bR,13aR,13bR)-3a-((1R,3S)-3-((4-benzylpiperidin-1-yl)methyl)cyclopentylcarbamoyl)-5a,5b,8,8,11a-pentamethyl-1-(prop-1-en-2-yl)icosahydro-1H-cyclopenta[a]chrysen-9-yloxy)-5-oxopentanoic acid], for which the IC50 in data set [1] (read-out: IC50), in data set [2] and in data set [3] was 6700 nM each time. Further, the “TI / Safety Index (CC50/IC50)” value in data set [1], in data set [2] and in data set [3] was 2.98 each time. Besides, the CC50 in data set [4] stood at 20000 nM.

On to `C=C(C)[C@@H]1CC[C@]2(C(=O)N[C@@H]3CC[C@H](CN4CCN(CC)CC4)C3)CC[C@]3(C)[C@H](CC[C@@H]4[C@@]5(C)CC[C@H](OC(=O)CC(C)(C)C(=O)O)C(C)(C)[C@@H]5CC[C@]43C)[C@@H]12` [Example 36, 4-((1R,3aS,5aR,5bR,7aR,9S,11aR,11bR,13aR,13bR)-3a-((1R,3S)-3-((4-ethylpiperazin-1-yl)methyl)cyclopentylcarbamoyl)-5a,5b,8,8,11a-pentamethyl-1-(prop-1-en-2-yl)icosahydro-1H-cyclopenta[a]chrysen-9-yloxy)-2,2-dimethyl-4-oxobutanoic acid], for which the IC50 in data set [1] (read-out: IC50) worked out at 5 nM; in data set [2] it was 4 nM; in data set [3], 5 nM. For the same molecule, the “TI / Safety Index (CC50/IC50)” value was 4000 in data set [1], 5000 in data set [2] and 4000 in data set [3]. In data set [4], this molecule registered a CC50 above 20000 nM.

For the molecule `C=C(C)[C@@H]1CC[C@]2(C(=O)N3CCN(CC)CC3)CC[C@]3(C)[C@H](CC[C@@H]4[C@@]5(C)CC[C@H](OC(=O)C6CC(C(=O)O)C6(C)C)C(C)(C)[C@@H]5CC[C@]43C)[C@@H]12` (stereo partly drawn) [Example 54, 3-(((1R,3aS,5aR,5bR,7aR,9S,11aR,11bR,13aR,13bR)-3a-(4-ethylpiperazine-1-carbonyl)-5a,5b,8,8,11a-pentamethyl-1-(prop-1-en-2-yl)icosahydro-1H-cyclopenta[a]chrysen-9-yloxy)carbonyl)-2,2-dimethylcyclobutanecarboxylic acid], the concentration for half-maximal inhibition (IC50) in data set [1] (read-out: IC50) is 13 nM; in data set [2], 5 nM; in data set [3], 24 nM. Also, the “TI / Safety Index (CC50/IC50)” value in data set [1] is on record as 1538; in data set [2], 4000; in data set [3] it was 833. This molecule came in with a CC50 in data set [4] above 20000 nM.

Usually inhibition stands for the percentage by which the read-out fell short of the control. For `C=C(C)[C@@H]1CC[C@]2(C(=O)NC3CC(C(=O)NCCC(=O)N4CCCC4)C3(C)C)CC[C@]3(C)[C@H](CC[C@@H]4[C@@]5(C)CC[C@H](O)C(C)(C)[C@@H]5CC[C@]43C)[C@@H]12` (stereo partly drawn) [Example 98, (1R,3aS,5aR,5bR,7aR,9S,11aR,11bR,13aR,13bR)-N-(2,2-dimethyl-3-(3-oxo-3-(pyrrolidin-1-yl)propylcarbamoyl)cyclobutyl)-9-hydroxy-5a,5b,8,8,11a-pentamethyl-1-(prop-1-en-2-yl)icosahydro-1H-cyclopenta[a]chrysene-3a-carboxamide], in data set [5], the inhibition at 0.1 µM was found to be 1% and the inhibition at 1 µM is 50%.

In the case of `C=C(C)[C@@H]1CC[C@]2(C(=O)N[C@@H]3CC[C@H](CN4CCC(Cc5ccccc5)CC4)C3)CC[C@]3(C)[C@H](CC[C@@H]4[C@@]5(C)CC[C@H](OC(=O)CC(C)(C)C(=O)O)C(C)(C)[C@@H]5CC[C@]43C)[C@@H]12` [Example 99, 4-((1R,3aS,5aR,5bR,7aR,9S,11aR,11bR,13aR,13bR)-3a-((1R,3S)-3-((4-benzylpiperidin-1-yl)methyl)cyclopentylcarbamoyl)-5a,5b,8,8,11a-pentamethyl-1-(prop-1-en-2-yl)icosahydro-1H-cyclopenta[a]chrysen-9-yloxy)-2,2-dimethyl-4-oxobutanoic acid], in data set [5], the inhibition at 0.1 µM was found to be 89% and the inhibition at 1 µM turned out to be 97%.

(Values after patent publication US9067966B2, “Lupeol-type triterpene derivatives as antivirals” (priority 2009, dated 2015).)
